# Test results: US12358908B2, “Crystals, preparation method and application of a muscarinic receptor antagonist” (BEIJING SHOWBY PHARMACEUTICAL CO., LTD., priority 2020, dated 2025)
# How the values were obtained:
# [1] = Stability test in 40° C./75% RH chamber with XRPD detection; assay type: physicochemical; settings: bottle sealed with filter paper, after 3 days
# Procedure: The solid samples obtained were analyzed with an X-ray powder diffraction analyzer (Bruker D8 advance) equipped with a LynxEye detector. The samples was scanned with a 20 scanning angle from 3° to 40°, a scanning step of 0.02°, a tube voltage of 40 KV and a tube current of 40 mA. The sample pan used for sample measurement is a zero background sample pan.
# The bottle was sealed with filter paper, and put into a 40° C./75% RH chamber for stability test. After 3 days, the sample was taken out for XRPD detection.
# About 10 mg of Crystal B was weighed in an 8 mL sample bottle. The bottle was sealed with filter paper, and put into a 40° C./75% RH chamber for stability test. After 3 days, the sample was taken out for XRPD detection.
# [2] = Dynamic vapor sorption (DVS); assay type: physicochemical; settings: at RH 80% humidity
# Procedure: The dynamic vapor sorption and desorption analysis was performed on the IGA SORP (Hidenlsochema) instrument. The samples were tested in gradient mode. The test was performed in a humidity range of 0% to 90%, with an incremental humidity between each gradient of 10%. For each gradient, the shortest test time was 30 min, and the longest test time was 120 min. There is a time interval of 3 min for collecting data in the system.
# M3 receptor = M3 receptor (Homo sapiens, UniProt P20309); settings: selective effect on M receptor subtypes; cited from earlier work
# M2 receptor = target: T1, M2 receptor (Homo sapiens, UniProt P08172); settings: selective effect on M receptor subtypes; cited from earlier work
# T1 sequence (P08172 1-466): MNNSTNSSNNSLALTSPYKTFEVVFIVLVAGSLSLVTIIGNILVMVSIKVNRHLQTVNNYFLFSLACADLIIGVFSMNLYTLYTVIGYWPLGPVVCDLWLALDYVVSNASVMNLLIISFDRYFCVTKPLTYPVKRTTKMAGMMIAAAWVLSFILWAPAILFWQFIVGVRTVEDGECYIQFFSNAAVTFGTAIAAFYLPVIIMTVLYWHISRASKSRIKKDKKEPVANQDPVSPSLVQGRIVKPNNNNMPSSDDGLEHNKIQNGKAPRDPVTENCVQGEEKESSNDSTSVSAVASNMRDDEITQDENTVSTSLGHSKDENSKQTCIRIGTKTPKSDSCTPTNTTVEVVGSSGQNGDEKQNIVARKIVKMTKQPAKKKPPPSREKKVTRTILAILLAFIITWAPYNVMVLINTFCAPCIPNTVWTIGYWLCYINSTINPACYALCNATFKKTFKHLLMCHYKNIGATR
# Chain of M3 receptor (P20309 whole entry): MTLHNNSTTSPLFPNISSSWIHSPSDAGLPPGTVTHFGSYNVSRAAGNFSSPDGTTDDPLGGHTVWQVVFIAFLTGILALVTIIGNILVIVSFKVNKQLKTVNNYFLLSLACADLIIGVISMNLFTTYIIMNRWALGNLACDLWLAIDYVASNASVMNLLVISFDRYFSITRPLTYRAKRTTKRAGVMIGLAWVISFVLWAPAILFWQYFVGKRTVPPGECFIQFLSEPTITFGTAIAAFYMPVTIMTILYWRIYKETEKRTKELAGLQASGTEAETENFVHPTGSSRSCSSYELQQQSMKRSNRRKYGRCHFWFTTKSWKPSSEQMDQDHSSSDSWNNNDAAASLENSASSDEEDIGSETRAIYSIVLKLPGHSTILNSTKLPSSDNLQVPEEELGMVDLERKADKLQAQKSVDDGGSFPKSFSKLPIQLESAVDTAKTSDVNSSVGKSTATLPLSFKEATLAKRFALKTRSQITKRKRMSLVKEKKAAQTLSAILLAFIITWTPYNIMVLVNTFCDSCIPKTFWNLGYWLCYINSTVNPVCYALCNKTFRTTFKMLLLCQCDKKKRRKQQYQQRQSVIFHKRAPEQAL
SMILES,crystal form change by XRPD detection after stability test [1],hygroscopic weight increment [2] [%],effect on M3 receptor (M3 receptor),effect on M2 receptor (M2 receptor)
O[C@@](CO[C@H]1C[N+]2(CCCOc3ccccc3)CCC1CC2)(c1ccccc1)C1CCCC1.[Br-] [Crystal B],did not change,2.58,,
"O[C@@](CO[C@H]1C[N+]2(CCCOc3ccccc3)CCC1CC2)(c1ccccc1)C1CCCC1.[Br-] [Compound I, (2R,3R)-3-[(2-cyclopentyl-2-hydroxy-2-phenyl)ethoxy]-1-(3-phenoxypropyl)-1-azabicyclo[2,2,2]octylonium bromide]",,,strong effect,weak effect
